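Five concentrations, 48 hours, 96-well plates. TGI: total growth inhibition.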
Key:
Assay in all cases: NCI tumour cell line growth inhibition, 48 h
HCT-15 colon = tested on: HCT-15 colon
SNB-78 CNS = tested on: SNB-78 CNS
HCT-116 colon = tested on: HCT-116 colon
SNB-19 CNS = tested on: SNB-19 CNS
SW-620 colon = tested on: SW-620 colon
ACHN renal = tested on: ACHN renal
UACC-62 melanoma = tested on: UACC-62 melanoma
SF-295 CNS = tested on: SF-295 CNS
KM12 colon = tested on: KM12 colon
DLD-1 colon = tested on: DLD-1 colon
A549 NSCLC = tested on: A549 NSCLC
SK-OV-3 ovarian = tested on: SK-OV-3 ovarian
KM20L2 colon = tested on: KM20L2 colon
SK-MEL-28 melanoma = tested on: SK-MEL-28 melanoma
IGROV1 ovarian = tested on: IGROV1 ovarian
UO-31 renal = tested on: UO-31 renal
NCI-H23 lung = tested on: NCI-H23 lung
OVCAR-8 ovarian = tested on: OVCAR-8 ovarian
RXF 393 renal = tested on: RXF 393 renal
HCC-2998 colon = tested on: HCC-2998 colon
NCI-H522 lung = tested on: NCI-H522 lung
UACC-257 melanoma = tested on: UACC-257 melanoma
SN12C renal = tested on: SN12C renal
SR leukemia = tested on: SR leukemia
HL-60(TB) leukemia = tested on: HL-60(TB) leukemia
NCI-H226 lung = tested on: NCI-H226 lung
786-0 renal = tested on: 786-0 renal
TK-10 renal = tested on: TK-10 renal
OVCAR-3 ovarian = tested on: OVCAR-3 ovarian
LOX IMVI melanoma = tested on: LOX IMVI melanoma
NCI-H460 lung = tested on: NCI-H460 lung
M14 melanoma = tested on: M14 melanoma
M19-MEL melanoma = tested on: M19-MEL melanoma
SF-539 CNS = tested on: SF-539 CNS
SF-268 CNS = tested on: SF-268 CNS
MOLT-4 leukemia = tested on: MOLT-4 leukemia
HOP-62 NSCLC = tested on: HOP-62 NSCLC
U251 CNS = tested on: U251 CNS
SNB-75 CNS = tested on: SNB-75 CNS
RPMI-8226 leukemia = tested on: RPMI-8226 leukemia
COLO 205 colon = tested on: COLO 205 colon
DMS 273 small cell lung = tested on: DMS 273 small cell lung
CCRF-CEM leukemia = tested on: CCRF-CEM leukemia
K-562 leukemia = tested on: K-562 leukemia
DMS 114 small cell lung = tested on: DMS 114 small cell lung
LXFL 529 NSCLC = tested on: LXFL 529 NSCLC
MALME-3M melanoma = tested on: MALME-3M melanoma
BT-549 breast = tested on: BT-549 breast
T-47D breast = tested on: T-47D breast
MCF7 breast = tested on: MCF7 breast
MDA-MB-231 breast = tested on: MDA-MB-231 breast
PC-3 prostate = tested on: PC-3 prostate
EKVX NSCLC = tested on: EKVX NSCLC
OVCAR-4 ovarian = tested on: OVCAR-4 ovarian
A498 renal = tested on: A498 renal
MDA-MB-435 = tested on: MDA-MB-435
NCI/ADR-RES ovarian = tested on: NCI/ADR-RES ovarian
HT29 colon = tested on: HT29 colon
HS 578T breast = tested on: HS 578T breast
SK-MEL-2 melanoma = tested on: SK-MEL-2 melanoma
OVCAR-5 ovarian = tested on: OVCAR-5 ovarian
DU-145 prostate = tested on: DU-145 prostate
MDA-N = tested on: MDA-N

Measured: TGI

Cc1ccc(S(=O)(=O)NCCCN(CCCNS(=O)(=O)c2ccc(C)cc2)S(=O)(=O)c2ccc(C)cc2)cc1
not listed: BT-549 breast | T-47D breast | MCF7 breast | MDA-MB-231 breast | PC-3 prostate | EKVX NSCLC | OVCAR-4 ovarian | A498 renal | MDA-MB-435 | NCI/ADR-RES ovarian | HT29 colon | HS 578T breast | SK-MEL-2 melanoma | OVCAR-5 ovarian | DU-145 prostate | MDA-N
> 100 µM: all other assays above

O=C1NN=C(c2ccc(Cl)cc2)CC1C1C(=O)N(c2ccccc2)N=C1c1ccccc1 (configuration not stated)
91.8 µM: NCI-H226 lung
84.4 µM: A498 renal
62.8 µM: NCI-H23 lung
76.3 µM: CCRF-CEM leukemia
45.9 µM: LOX IMVI melanoma
65.2 µM: NCI-H522 lung
56.6 µM: UO-31 renal
80.7 µM: OVCAR-5 ovarian
70.9 µM: RXF 393 renal
77.4 µM: MDA-MB-435
66.8 µM: SF-539 CNS
72.8 µM: UACC-62 melanoma
91.7 µM: HCC-2998 colon
72.3 µM: PC-3 prostate
78.7 µM: SK-MEL-2 melanoma
54.4 µM: BT-549 breast
93.9 µM: HS 578T breast
82.9 µM: U251 CNS
72.9 µM: OVCAR-3 ovarian
80.4 µM: NCI-H460 lung
86.5 µM: OVCAR-4 ovarian
63.2 µM: 786-0 renal
44.8 µM: HCT-116 colon
not listed: SNB-78 CNS | DLD-1 colon | KM20L2 colon | UACC-257 melanoma | M19-MEL melanoma | DMS 273 small cell lung | DMS 114 small cell lung | LXFL 529 NSCLC
> 100 µM: all other assays above

— PubChem BioAssay (NCI)
